One data set deals with T lymphocytes. Kind of data set: Inhibition of T cell proliferation to FC1P peptides, tritiated thymidine incorporation (Example 5). In kind it is cell-based. To be noted: added at 10^−6M or 10^−9M; freshly isolated T lymphocytes cultured with FC1P. How it is done: Freshly isolated T lymphocytes were cultured in vitro with concentrations of FC1P peptides, previously determined as being optimal for the induction of proliferative and/or other responses in these cells. To certain of the culture wells were added, the glucocorticosteroid Dexamethazone or fluticazone, these were added to cultures at dilutions of 10^−6M or 10^−9M. After culture, cells were labelled with tritiated thymidine to enable quantification of DNA synthesis and thus cellular proliferation.

The test system of data set [1] is volunteer cat-allergic asthmatic. Kind of data set: Intradermal injection of FC1P into a volunteer cat-allergic asthmatic, lung function (Example 4). In kind it is in vivo, human. To be noted: 40 μg FC1P intradermally into each forearm. The procedure: 40 μg of highly purified FC1P peptides was injected intradermally into each forearm of a volunteer cat-allergic asthmatic. […] The drop in FEV1 was reversed by the administration of β2 agonist and inhaled corticosteroid at 8 hours. The results of this are shown diagrammatically in FIG. 6.

For data set [2], the system named is peripheral blood mononuclear cells. Nature of the data set: Primary proliferative response of freshly isolated PBMC to FC1P (Example 3). It counts as cell-based, human. To be noted: 10^5 cells per well, 6 days, cat allergic asthmatics (CAA) compared with non-cat allergic asthmatics (NCA). How it is done: Freshly isolated peripheral blood mononuclear cells were cultured at 10^5 cells per well for 6 days prior to labelling with tritiated thymidine for measurement of cellular proliferation.

Three compounds from patent US6737406B1, “Cryptic peptides and method for their identification” (Circassia, Ltd., priority 1996, dated 2004) can be followed below.

With `C[C@@H]1C[C@H]2[C@@H]3CCC4=CC(=O)C=C[C@]4(C)[C@@]3(F)[C@@H](O)C[C@]2(C)[C@@]1(O)C(=O)CO` [dexamethazone], in the data set with T lymphocytes, the “inhibition of T cell proliferation to FC1P peptides (tritiated thymidine incorporation)” value is reported as “inhibition of T cell proliferation”.

Consider `C[C@@H]1C[C@H]2[C@@H]3C[C@H](F)C4=CC(=O)C=C[C@]4(C)[C@@]3(F)[C@@H](O)C[C@]2(C)[C@@]1(O)C(=O)SCF` [fluticazone], for which the “inhibition of T cell proliferation to FC1P peptides (tritiated thymidine incorporation)” value in the data set with T lymphocytes was “inhibition of T cell proliferation”.

Take “FC1P: three synthetic peptides derived from the sequence of Fel d I, collectively FC1P (SEQ ID NO:23, 5 and 24) (chain 1 LFLTGTPDEYVEQVAQY; chain 2 EQVAQYKALPVVLENA; chain 3 KALPVVLENARILKNCV; listed as Felis domesticus)”: in data set [1] (cat-allergic asthmatic), the late-phase asthmatic reaction entry is given as “induced an isolated late-phase asrimatic reaction” and the “time of late-phase asthmatic reaction after administration” value is “approximately three”. Besides, the “Lung function (quantified as FEV1)” value in data set [1] (over the next several hours) was “fell and remained low”. Moreover, the “primary proliferative responses (cellular proliferation, tritiated thymidine)” value in data set [2] was “greater primary proliferative responses”.
